The target in one assay is T1, β(1,4)-Gal-T1(Y289L) (Bos taurus, UniProt P08037, I205M/L206V/P187L/V158I/Y289L).
T1 construct: made in house; host or cells: E. coli
T1 sequence (P08037 1-402 V158I/P187L/I205M/L206V/Y289L): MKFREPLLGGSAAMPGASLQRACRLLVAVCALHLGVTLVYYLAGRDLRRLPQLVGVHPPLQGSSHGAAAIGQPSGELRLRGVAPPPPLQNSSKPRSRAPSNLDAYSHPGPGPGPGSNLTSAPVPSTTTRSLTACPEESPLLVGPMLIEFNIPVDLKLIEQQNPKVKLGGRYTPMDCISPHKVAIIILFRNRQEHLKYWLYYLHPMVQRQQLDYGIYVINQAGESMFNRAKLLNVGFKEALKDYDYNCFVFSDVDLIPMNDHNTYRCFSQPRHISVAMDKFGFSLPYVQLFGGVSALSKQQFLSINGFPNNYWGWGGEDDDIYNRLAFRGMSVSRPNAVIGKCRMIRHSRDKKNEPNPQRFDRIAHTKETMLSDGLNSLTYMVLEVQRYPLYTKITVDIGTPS
Kind of assay: Glycosyltransfer of UDP-galactosamine derivatives to trimmed trastuzumab with Gal-T1(Y289L) expressed in E. coli, mass spectral analysis. As to conditions: trimmed trastuzumab 10 mg/mL, pH 8.0, 30° C. overnight, reduced sample. Type of assay: biochemical, bovine. The procedure: General Protocol for Glycosyltransfer of Galactose Derivative UDP-GalNAz 21-24 with Gal-T1(Y289L) (Expressed in E. coli).
Enzymatic introduction of UDP-Gal derivatives 21-24 onto deglycosylated trastuzumab was effected with a mutant of bovine β(1,4)-galactosyltransferase [β(1,4)-Gal-T1(Y289L)] (expressed in E. coli). The deglycosylated trastuzumab (10 mg/mL) was incubated with the appropriate UDP-galactose derivative (0.4 mM) and β(1,4)-Gal-T1(Y289L) (1 mg/mL) in 10 mM MnCl2 and 25 mM Tris-HCl pH 8.0 for 16 hours at 30° C.
Next, the functionalized trastuzumab was incubated with protein A agarose (40 μL per mg IgG) for 2 hours at 4° C. The protein A agarose was washed three times with PBS and the IgG was eluted with 100 mM glycine-HCl pH 2.7. The eluted IgG was neutralized with 1 M Tris-HCl pH 8.0 and concentrated and washed with PBS using an Amicon Ultra-0.5, Ultracel-10 Membrane (Millipore) to a concentration of 15-20 mg/mL.
Trimmed trastuzumab (10 mg/mL, 3.3 nmol), obtained by Endo S treatment of trastuzumab, was incubated with UDP-galactosamine variant 21 (2.5 mM) and β(1,4)-Gal-T1(Y289L) (0.68 mg/mL, 45 μL) in 10 mM MnCl2 and 25 mM Tris-HCl pH 8.0 at 30° C. overnight.
Trimmed trastuzumab (10 mg/mL, 1.3 nmol), obtained by Endo S treatment of trastuzumab, was incubated with UDP-galactosamine variant 22 (4 mM) and β(1,4)-Gal-T1(Y289L) (1.4 mg/mL, 10 μL) in 10 mM MnCl2 and 25 mM Tris-HCl pH 8.0 at 30° C. overnight. Mass spectral analysis of the reduced sample indicated the formation of the product (49750.9 Da, approximately 80% of total heavy chain), resulting from galactosamide furan-2-carboxyl acid transfer to core GlcNAc(Fuc) substituted trastuzumab heavy chain as shown in FIG. 9.
Trimmed trastuzumab (10 mg/mL, 6.6 nmol), obtained by Endo S treatment of trastuzumab, was incubated with the 4-azido-3,5-difluorobenzoyl derivative of UDP-galactosamine (23, 7 mM) and β(1,4)-Gal-T1(Y289L) (2 mg/mL) in 10 mM MnCl2 and 25 mM Tris-HCl pH 8.0 at 30° C. overnight. Mass spectral analysis of the reduced sample indicated the formation of a one major product (49813 Da, approximately 90% of total heavy chain), resulting from transfer of 23 to core GlcNAc(Fuc)-substituted trastuzumab heavy chain.
Trimmed trastuzumab (10 mg/mL, 1.3 nmol), obtained by Endo S treatment of trastuzumab, was incubated with UDP-galactosamine variant 24 (4 mM) and (3(1,4)-Gal-T1(Y289L) (1.4 mg/mL, 10 μL) in 10 mM MnCl2 and 25 mM Tris-HCl pH 8.0 at 30° C. overnight.

In another assay the target is T2, Gal-T1(Y289M,C342T) (Bos taurus, UniProt P08037, C342T/Y289M).
T2 construct: host or cells: CHO K1
T2 sequence (P08037 74-402 V158I/P187L/I205M/L206V/Y289M/C342T): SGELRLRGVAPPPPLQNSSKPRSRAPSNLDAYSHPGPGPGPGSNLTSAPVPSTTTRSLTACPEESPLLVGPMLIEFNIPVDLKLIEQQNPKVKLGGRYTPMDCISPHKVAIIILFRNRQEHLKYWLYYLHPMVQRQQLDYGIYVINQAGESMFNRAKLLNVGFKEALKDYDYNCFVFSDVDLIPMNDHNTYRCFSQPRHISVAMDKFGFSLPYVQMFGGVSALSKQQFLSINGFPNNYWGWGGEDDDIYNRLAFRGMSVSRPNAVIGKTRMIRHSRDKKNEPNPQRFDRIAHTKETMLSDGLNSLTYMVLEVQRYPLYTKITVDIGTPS
Kind of assay: Glycosyltransfer to trimmed trastuzumab with Gal-T1(Y289M,C342T) expressed in CHO. Conditions: trimmed trastuzumab 10 mg/mL; UDP derivative 5 mM; enzyme 1.0 mg/mL; pH 8.0, 30° C. overnight. Type of assay: biochemical, bovine. As for the experimental part: (§1) A solution of 20 μg (modified) IgG was incubated for 1 hour at 37° C. with Fabricator™ (commercially available from Genovis, Lund, Sweden) (1.25 U/μL) in phosphate-buffered saline (PBS) pH 6.6 in a total volume of 10 μL. Fabricator™-digested samples were washed trice with milliQ using an Amicon Ultra-0.5, Ultracel-10 Membrane (Millipore) resulting in a final sample volume of approximately 40 μL. The Fc/2 fragment was analyzed by electrospray ionization time-of-flight (ESI-TOF) on a JEOL AccuTOF. Deconvoluted spectra were obtained using Magtran software.
(§2) A set of Gal-T 1 mutants encoding residues 74-402 of bovine Gal-T 1 were transiently expressed in CHO K1 cells by Evitria (Zurich, Switzerland) which include the Gal-T1 single mutants Y289L (represented by SEQ ID NO: 26), Y289F (represented by SEQ ID NO: 27), Y289M (represented by SEQ ID NO: 28), Y289V (represented by SEQ ID NO: 29), Y289A (represented by SEQ ID NO: 30), and Y289G (represented by SEQ ID NO: 31), and the Gal-T1 double mutants Y289L,C342T (represented by SEQ ID NO: 32), and Y289M,C342T (represented by SEQ ID NO: 33). The mutants were purified using a cation exchange column (Source 15S HR16/10 column, GE Healthcare) as described above. Purified proteins were analyzed by SDS-PAGE. […]

Another assay addresses T3, Gal-T1(Y289L,C342T) (Bos taurus, UniProt P08037, C342T/Y289L).
T3 construct: host or cells: CHO K1
T3 sequence (P08037 74-402 V158I/P187L/I205M/L206V/Y289L/C342T): T2 sequence (P08037 74-402 V158I/P187L/I205M/L206V/Y289M/C342T) with M216L
Kind of assay: Glycosyltransfer to trimmed trastuzumab with Gal-T1(Y289L,C342T) expressed in CHO. The class given is biochemical, bovine. Conditions: trimmed trastuzumab 10 mg/mL; UDP derivative 1 mM; enzyme 1.0 mg/mL; pH 8.0, 30° C. overnight. The procedure: as §1, §2

For another assay, the target named is T4, β4Gal-T1 (Bos taurus, UniProt P08037).
T4 sequence (P08037 1-402): T1 sequence (P08037 1-402 V158I/P187L/I205M/L206V/Y289L) with I158V, L187P, M205I, V206L, L289Y
As to conditions: native enzyme; cited from earlier work.

The target of a further assay is T5, β4Gal-T1(Y289L) (Bos taurus, UniProt P08037, Y289L).
T5 sequence (P08037 1-402 Y289L): T1 sequence (P08037 1-402 V158I/P187L/I205M/L206V/Y289L) with I158V, L187P, M205I, V206L
Conditions: GlcNAc acceptor; cited from earlier work.

Where [1] appears, read: UDP derivative 4 mM, enzyme 1.4 mg/mL.

Changes are numbered by the printed parent chain.

On to `O=C(NC1C(OP(=O)(O)OP(=O)(O)OCC2OC(n3ccc(=O)[nH]c3=O)C(O)C2O)OC(CO)C(O)C1O)c1cccnc1` (stereo not shown) [Compound 21, 3-pyridylcarbonyl Derivative of UDP-GalNH2], for which, on β(1,4)-Gal-T1(Y289L) (UDP derivative 2.5 mM, enzyme 0.68 mg/mL), the “product, % of total heavy chain” value is “approximately 5%”. Turning to `O=C(NC1C(OP(=O)(O)OP(=O)(O)OCC2OC(n3ccc(=O)[nH]c3=O)C(O)C2O)OC(CO)C(O)C1O)c1ccco1` (stereo not shown) [Compound 22, Furylcarbonyl Derivative of UDP-GalNH2], the “product, % of total heavy chain” value on β(1,4)-Gal-T1(Y289L) (setting [1]) is listed as “approximately 80%”. `[N-]=[N+]=Nc1c(F)c(F)c(C(=O)N[C@H]2[C@@H](OP(=O)(O)OP(=O)(O)OC[C@H]3O[C@@H](n4ccc(=O)[nH]c4=O)[C@H](O)[C@@H]3O)O[C@H](CO)[C@H](O)[C@@H]2O)c(F)c1F` [Compound 23b, 4-azido-2,3,5,6-tetrafluorobenzoyl Derivative of UDP-GalNH2]: the conversion into product entry on Gal-T1(Y289M,C342T) was “approximately 10%”; on Gal-T1(Y289L,C342T) it was “approximately 70%”. Take `O=C(NC1C(OP(=O)(O)OP(=O)(O)OCC2OC(n3ccc(=O)[nH]c3=O)C(O)C2O)OC(CO)C(O)C1O)C1CCCC1` (stereo not shown) [Compound 24, Cyclopentylcarbonyl Derivative of UDP-GalNH2]: the “product, % of total heavy chain” value on β(1,4)-Gal-T1(Y289L) (setting [1]) is reported as “approximately 90%”. As for `CC(=O)N[C@H]1[C@@H](OP(=O)(O)OP(=O)(O)OC[C@H]2O[C@@H](n3ccc(=O)[nH]c3=O)[C@H](O)[C@@H]2O)O[C@H](CO)[C@H](O)[C@@H]1O` [UDP-GalNAc], the “efficiency of GalNAc transfer compared to Gal transfer from UDP-Gal” value on β4Gal-T1 is listed as 0.1%. The “efficiency of GalNAc transfer relative to β4Gal-T1/Gal transfer” value on β4Gal-T1(Y289L) was around 100%.

The values are drawn from patent US20170009266A1, “PROCESS FOR THE ATTACHMENT OF A GALNAC MOIETY COMPRISING A (HETERO)ARYL GROUP TO A GLCNAC MOIETY, AND PRODUCT OBTAINED THEREBY” (SYNAFFIX B.V., priority 2014, published 2017).
